Measurements reported in PubChem BioAssay (NCI).
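96-well plates; 48 h exposure; 5 concentrations. Endpoints by linear interpolation between flanking doses. Not reached: highest tested concentration assigned. At the GI50, growth is halved. TGI marks complete inhibition of growth.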

Experiments:
Assay in all cases: DTP human tumour cell line panel, 48 h
[1] = tested on: CAKI-1 renal
[2] = tested on: SNB-19 CNS
[3] = tested on: MDA-MB-435
[4] = tested on: SN12C renal
[5] = tested on: CCRF-CEM leukemia
[6] = tested on: RXF 393 renal
[7] = tested on: OVCAR-3 ovarian
[8] = tested on: HOP-62 NSCLC
[9] = tested on: HCT-15 colon
[10] = tested on: HT29 colon

| SMILES | GI50 [1] [µM] | TGI [1] [µM] | TGI [2] [µM] | GI50 [3] [µM] | TGI [3] [µM] | GI50 [4] [µM] | TGI [4] [µM] | GI50 [5] [µM] | TGI [5] [µM] | GI50 [6] [µM] | TGI [6] [µM] | GI50 [7] [µM] | TGI [7] [µM] | GI50 [8] [µM] | TGI [8] [µM] | GI50 [9] [µM] | TGI [9] [µM] | GI50 [10] [µM] | TGI [10] [µM] | GI50 [2] [µM] |
| --- | --- | --- | --- | --- | --- | --- | --- | --- | --- | --- | --- | --- | --- | --- | --- | --- | --- | --- | --- | --- |
| CO[C@H]1C[C@@H]2CC[C@@H](C)[C@@](O)(O2)C(=O)C(=O)N2CCCC[C@H]2C(=O)O[C@H]([C@H](C)C[C@@H]2CC[C@@H](OC(=O)C(C)(CO)CO)[C@H](OC)C2)CC(=O)[C@H](C)/C=C(\C)[C@@H](O)[C@@H](OC)C(=O)[C@H](C)C[C@H](C)\C=C/C=C/C=C/1C | 0.0352 | > 10 | > 10 | 2.36 | > 10 | > 10 | > 10 | 0.0368 | > 10 | < 0.001 | > 10 | 0.685 | > 10 | 0.0147 | > 10 | 0.112 | > 10 | 1.47 | > 10 | – |
| CCCCN(CCCC)C(=O)[C@H](CC)[C@@H]1CC[C@@H](C)[C@@H]([C@H](C)[C@@H](O)[C@@H](C)C(=O)[C@H](CC)C2O[C@]3(C=C[C@@H](O)[C@]4(CC[C@@](C)([C@H]5CC[C@](O)(CC)[C@H](C)O5)O4)O3)[C@H](C)C[C@@H]2C)O1 (some centres undefined) | 1.91 | 9.02 | > 100 | 2.92 | 10.1 | 2.13 | 7.34 | 3.13 | 11.7 | 1.59 | 3.37 | 1.87 | 4.84 | 3.79 | 27.4 | 2.31 | 6.12 | 2.88 | 12.4 | 3.46 |
| CC(C)(C)c1cc(C(=O)Nc2ccccc2C(=O)NCCN)cc(C(C)(C)C)c1 | 2.21 | 5.56 | 3.75 | 1.72 | 3.24 | 1.97 | 3.97 | 2.5 | 6.36 | 2.01 | 3.58 | 1.89 | 3.46 | 1.67 | 3.21 | 1.89 | 3.45 | 1.84 | 3.59 | 1.93 |
| Cn1cc(/C=C\[N+](=O)[O-])c2ccccc21 | 66.8 | > 100 | > 100 | 27.7 | 84.7 | > 100 | > 100 | 25.2 | > 100 | 17.6 | 32.3 | 28.1 | > 100 | > 100 | > 100 | 44.3 | > 100 | 21.4 | 39.8 | 75 |
| O=C1NC(=NCc2ccccc2Cl)S/C1=C\c1ccc2ncccc2c1 | 4.83 | > 19.5 | > 25 | 6.83 | > 25 | 13.1 | > 25 | 11.2 | > 25 | 8.49 | > 25 | 17.6 | > 25 | 16 | > 25 | 4.33 | > 25 | > 25 | > 25 | 13.2 |
